In article PMC4076210, “Discovery of Novel AKT Inhibitors with Enhanced Anti-Tumor Effects in Combination with the MEK Inhibitor” (PLoS ONE, 2014):

Key:
[1] = tested on: hematological tumor cell lines; assay: 3-day proliferation assay (CellTiter-Glo); assay type: cell-based, human; conditions: Homo sapiens
Summary of the method: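 Growth inhibition was read by CellTiter-Glo after 3 days' exposure to 0–30 µM compound and expressed against DMSO controls. EC50 was derived by 4- or 6-parameter fitting. Cells were mostly grown in RPMI plus 10% FBS, some in vendor-specified media.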

MST1(h) = biological target: T1, MST1(h) (Homo sapiens, UniProt Q13043); assay: Kinase panel; assay type: biochemical; conditions: read-out: % Inhibition
T1 construct: purchased Millipore KinaseProfiler
T1 sequence (Q13043 1-487): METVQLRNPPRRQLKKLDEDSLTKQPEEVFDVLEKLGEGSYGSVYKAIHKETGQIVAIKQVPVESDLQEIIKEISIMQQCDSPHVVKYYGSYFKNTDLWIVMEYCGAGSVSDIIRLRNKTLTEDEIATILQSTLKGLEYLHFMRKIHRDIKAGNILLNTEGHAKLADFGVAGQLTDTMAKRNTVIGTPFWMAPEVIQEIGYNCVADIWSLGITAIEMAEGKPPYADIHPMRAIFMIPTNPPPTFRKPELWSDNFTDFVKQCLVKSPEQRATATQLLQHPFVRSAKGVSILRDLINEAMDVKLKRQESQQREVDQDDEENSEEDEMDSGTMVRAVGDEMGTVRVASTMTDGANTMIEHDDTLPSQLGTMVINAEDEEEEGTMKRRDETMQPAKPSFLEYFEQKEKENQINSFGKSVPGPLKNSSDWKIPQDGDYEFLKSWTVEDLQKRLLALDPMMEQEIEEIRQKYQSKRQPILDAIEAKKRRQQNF

Tie2(Y897S)(h) = biological target: T2, Tie2(Y897S)(h) (Homo sapiens, UniProt Q02763, Y897S); assay: Kinase panel; assay type: biochemical; conditions: read-out: % Inhibition
T2 construct: purchased Millipore KinaseProfiler

ALK(h) = biological target: T3, ALK(h) (Homo sapiens, UniProt Q9UM73); assay: Kinase panel; assay type: biochemical; conditions: read-out: % Inhibition
T3 construct: purchased Millipore KinaseProfiler
T3 sequence (Q9UM73 19-1620): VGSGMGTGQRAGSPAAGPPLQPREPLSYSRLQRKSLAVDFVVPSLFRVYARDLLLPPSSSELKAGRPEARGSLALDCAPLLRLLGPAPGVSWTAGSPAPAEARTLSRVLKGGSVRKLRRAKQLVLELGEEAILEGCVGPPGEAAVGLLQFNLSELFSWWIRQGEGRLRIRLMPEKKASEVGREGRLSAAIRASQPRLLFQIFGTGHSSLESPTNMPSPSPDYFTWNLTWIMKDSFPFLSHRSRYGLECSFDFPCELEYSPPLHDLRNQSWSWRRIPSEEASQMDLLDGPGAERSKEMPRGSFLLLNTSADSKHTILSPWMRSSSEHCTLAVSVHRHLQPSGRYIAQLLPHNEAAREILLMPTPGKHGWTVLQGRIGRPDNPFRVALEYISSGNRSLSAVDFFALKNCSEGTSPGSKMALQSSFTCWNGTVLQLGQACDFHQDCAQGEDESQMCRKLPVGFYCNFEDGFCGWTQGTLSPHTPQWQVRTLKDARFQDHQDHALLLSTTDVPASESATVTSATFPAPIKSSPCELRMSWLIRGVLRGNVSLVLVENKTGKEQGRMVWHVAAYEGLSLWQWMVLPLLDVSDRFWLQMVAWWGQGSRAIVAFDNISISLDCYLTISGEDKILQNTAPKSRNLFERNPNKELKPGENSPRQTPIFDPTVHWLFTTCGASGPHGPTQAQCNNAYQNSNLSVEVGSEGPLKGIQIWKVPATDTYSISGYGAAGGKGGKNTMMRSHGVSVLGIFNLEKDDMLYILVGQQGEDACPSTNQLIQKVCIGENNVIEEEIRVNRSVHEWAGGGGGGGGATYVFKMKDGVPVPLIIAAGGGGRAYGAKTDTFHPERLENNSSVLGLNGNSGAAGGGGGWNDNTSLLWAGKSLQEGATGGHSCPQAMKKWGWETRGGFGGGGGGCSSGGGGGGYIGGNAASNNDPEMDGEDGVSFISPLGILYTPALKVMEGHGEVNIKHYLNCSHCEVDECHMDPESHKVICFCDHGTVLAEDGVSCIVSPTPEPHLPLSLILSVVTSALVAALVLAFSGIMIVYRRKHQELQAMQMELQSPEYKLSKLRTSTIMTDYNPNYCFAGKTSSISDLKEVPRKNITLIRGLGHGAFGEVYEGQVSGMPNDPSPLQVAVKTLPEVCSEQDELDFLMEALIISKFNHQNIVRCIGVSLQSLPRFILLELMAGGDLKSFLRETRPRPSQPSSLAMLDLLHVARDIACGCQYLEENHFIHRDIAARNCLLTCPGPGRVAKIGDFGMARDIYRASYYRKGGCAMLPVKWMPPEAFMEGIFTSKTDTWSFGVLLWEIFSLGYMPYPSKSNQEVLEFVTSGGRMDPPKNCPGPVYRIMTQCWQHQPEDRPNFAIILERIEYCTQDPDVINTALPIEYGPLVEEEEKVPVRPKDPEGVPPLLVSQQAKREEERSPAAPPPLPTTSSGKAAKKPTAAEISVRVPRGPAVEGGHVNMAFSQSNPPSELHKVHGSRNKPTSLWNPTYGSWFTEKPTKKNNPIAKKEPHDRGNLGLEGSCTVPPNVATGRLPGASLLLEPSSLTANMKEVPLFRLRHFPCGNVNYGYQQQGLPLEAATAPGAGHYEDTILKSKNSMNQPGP

T2 sequence (Q02763 23-1124 Y897S): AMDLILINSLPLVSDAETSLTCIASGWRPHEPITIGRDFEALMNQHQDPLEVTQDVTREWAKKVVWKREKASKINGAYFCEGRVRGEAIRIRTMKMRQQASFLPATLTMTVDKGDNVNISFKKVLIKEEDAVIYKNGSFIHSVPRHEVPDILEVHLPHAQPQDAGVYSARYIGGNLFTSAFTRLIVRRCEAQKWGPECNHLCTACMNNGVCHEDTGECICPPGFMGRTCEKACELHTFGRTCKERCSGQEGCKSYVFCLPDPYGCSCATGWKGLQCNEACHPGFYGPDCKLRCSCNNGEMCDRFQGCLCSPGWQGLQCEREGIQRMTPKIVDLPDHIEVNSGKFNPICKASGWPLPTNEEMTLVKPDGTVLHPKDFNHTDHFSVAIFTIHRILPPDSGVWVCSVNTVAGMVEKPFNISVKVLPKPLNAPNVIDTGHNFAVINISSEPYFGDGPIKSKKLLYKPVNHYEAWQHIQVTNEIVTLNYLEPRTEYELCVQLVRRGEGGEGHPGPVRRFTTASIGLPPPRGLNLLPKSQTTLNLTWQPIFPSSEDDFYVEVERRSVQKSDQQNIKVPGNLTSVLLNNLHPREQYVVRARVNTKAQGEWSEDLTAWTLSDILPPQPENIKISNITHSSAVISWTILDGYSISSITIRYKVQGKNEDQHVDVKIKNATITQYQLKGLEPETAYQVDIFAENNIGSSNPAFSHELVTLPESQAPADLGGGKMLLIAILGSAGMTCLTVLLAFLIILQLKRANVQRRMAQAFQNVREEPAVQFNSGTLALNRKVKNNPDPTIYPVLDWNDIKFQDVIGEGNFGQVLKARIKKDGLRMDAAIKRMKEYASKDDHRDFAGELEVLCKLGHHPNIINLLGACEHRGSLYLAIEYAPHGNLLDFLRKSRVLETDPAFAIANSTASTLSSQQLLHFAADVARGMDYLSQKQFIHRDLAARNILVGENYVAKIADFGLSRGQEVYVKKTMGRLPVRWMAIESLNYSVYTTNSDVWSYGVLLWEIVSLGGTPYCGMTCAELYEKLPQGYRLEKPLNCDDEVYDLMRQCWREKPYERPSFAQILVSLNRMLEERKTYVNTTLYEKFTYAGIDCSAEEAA

Work on Cn1ncc(Cl)c1-c1cc(C(=O)N[C@H](CN)Cc2ccc(F)c(F)c2)oc1Cl [GSK2141795] yielded an IC50 ([1]; L-428, L428 cell line, Hodgkin's Lymphoma, Unspecified) of 1.2 nM, an IC50 ([1]; MC116, MC116 cell line, Burkitt's Lymphoma, B Cell) of 320 nM and an IC50 ([1]; MEC1, MEC1 cell line, CLL, B Cell) of 168 nM. For the same molecule, the IC50 ([1]; MEC2, MEC-2 cell line, CLL, B Cell) was 112 nM, the IC50 ([1]; MEG-01, MEG01 cell line, CML, Megakaryoblastic) was 285 nM and the IC50 ([1]; MHH-CALL-3 cell line, ALL, pre-B Cell) was 26 nM. It also gave an IC50 ([1]; MHH-PREB-1, MHH-PREB-1 cell line, Non-Hodgkin's Lymphoma, B Cell) of 932 nM, an IC50 ([1]; ML-2, ML-2 cell line, AML, Myelomonocytic) of 399 nM and an IC50 ([1]; MOLT-3, MOLT3 cell line, ALL, T Cell) of 19 nM. The IC50 ([1]; MOLT-4, Molt-4 cell line, ALL, T Cell) was 10 nM, the IC50 ([1]; MOLT-16, MOLT16 cell line, ALL, T Cell) was 15 nM and the IC50 ([1]; MV4-11, MV-4-11 cell line, AML, Myelomonocytic) was 875 nM. For the same molecule, the IC50 ([1]; NALM-6, Nalm-6 cell line, ALL, pre-B Cell) was 74 nM, the IC50 ([1]; NC-37, NC-37 cell line, Burkitt's Lymphoma, B Cell) was 752 nM and the IC50 ([1]; NOMO-1, Nomo-1 cell line, AML, B Cell) was 48 nM. For the same molecule, the IC50 ([1]; NU-DHL-1, NU-DHL-1 cell line, Burkitt's Lymphoma, B Cell) was 16 nM, the IC50 ([1]; OCI-AML2, OCI-AML-2 cell line, AML, B Cell) was 18100 nM and the IC50 ([1]; OCI-AML-3, OCI-AML-3 cell line, AML, B Cell) was 28 nM. It also gave an IC50 ([1]; OCI-M1, OCI-M1 cell line, AML, B Cell) of 644 nM, an IC50 ([1]; P3HR-1, P3HR-1 cell line, Burkitt's Lymphoma, B Cell) of 17 nM and an IC50 ([1]; PLB-985, PLB985 cell line, AML, B Cell) of 1140 nM. For the same molecule, the IC50 ([1]; Pfeiffer, Pfeiffer cell line, Non-Hodgkin's Lymphoma, B Cell) was 10 nM, the IC50 ([1]; RCH-ACV cell line, ALL, pre-B Cell) was 157 nM and the IC50 ([1]; RCK8, RC-K8 cell line, Non-Hodgkin's Lymphoma (Histiocytic), B Cell) was 1750 nM. For the same molecule, the IC50 ([1]; REH, Reh cell line, ALL, pre-B Cell) was 92 nM, the IC50 ([1]; RL, RL cell line, Non-Hodgkin's Lymphoma, B Cell) was 72 nM and the IC50 ([1]; RPMI-6666, RPMI 6666 cell line, Hodgkin's Lymphoma, Lymphoblast) was 121 nM. The IC50 ([1]; RS4-11, RS4;11 cell line, ALL, B Cell) was 177 nM, the IC50 ([1]; Raji, Raji cell line, Burkitt's Lymphoma, B Cell) was 6370 nM and the IC50 ([1]; Rec1, REC-1 cell line, Non-Hodgkin's Lymphoma, B Cell) was 721 nM. It also gave an IC50 ([1]; SC-1, SC1 cell line, Burkitt's Lymphoma, B Cell) of 965 nM, an IC50 ([1]; SEM cell line, ALL, pre-B Cell) of 210 nM and an IC50 ([1]; SKO-007, SKO-007 cell line, Multiple Myeloma, B Cell) of 4890 nM. For the same molecule, the IC50 ([1]; SKW3, SKW-3 cell line, CLL, B Cell) was 26 nM, the IC50 ([1]; SR, SR cell line, Non-Hodgkin's Lymphoma, Lymphoblast) was 1960 nM and the IC50 ([1]; ST486, ST486 cell line, Burkitt's Lymphoma, B Cell) was 745 nM. For the same molecule, the IC50 ([1]; SU-DHL10, SU-DHL-10 cell line, Non-Hodgkin's Lymphoma, B Cell) was 73 nM, the IC50 ([1]; SU-DHL-4, SU-DHL-4 cell line, Non-Hodgkin's Lymphoma, B Cell) was 53 nM and the IC50 ([1]; SU-DHL-5, SU-DHL-5 cell line, Non-Hodgkin's Lymphoma, B Cell) was 31 nM. It also gave an IC50 ([1]; SU-DHL-6, SU-DHL-6 cell line, Non-Hodgkin's Lymphoma, B Cell) of 35 nM, an IC50 ([1]; SU-DHL-16, SU-DHL-16 cell line, Non-Hodgkin's Lymphoma, B Cell) of 23 nM and an IC50 ([1]; SUP-B15, SUP B15 cell line, ALL, B Cell) of 824 nM. It also gave an IC50 ([1]; T-cell, 8E5 cell line, ALL, T Cell) of 31 nM, an IC50 ([1]; T-cell, A3 cell line, ALL, T Cell) of 38 nM and an IC50 ([1]; T-cell, CEM/C3 cell line, ALL, T Cell) of 18 nM. The IC50 ([1]; T-cell, I2.1 cell line, ALL, T Cell) was 26 nM, the IC50 ([1]; T-cell, I9.2 cell line, ALL, T Cell) was 43 nM and the IC50 ([1]; T-cell, J.Cam.1.6 cell line, ALL, T Cell) was 41 nM. The IC50 ([1]; T-cell, J.RT-T3.5 cell line, ALL, T Cell) was 30 nM, the IC50 ([1]; T-cell, JR45.01 cell line, ALL, T Cell) was 16 nM and the IC50 ([1]; T-cell, LOUCY cell line, ALL, T Cell) was 13 nM. It also gave an IC50 ([1]; T-cell, MJ cell line, Non-Hodgkin's Lymphoma (CTCL), T Cell) of 2880 nM, an IC50 ([1]; T-cell, P116 cell line, ALL, T Cell) of 18 nM and an IC50 ([1]; T-cell, SUPTI(VB) cell line, ALL, T Cell) of 115 nM. The IC50 ([1]; TO 175.T, TO 175.T cell line, Hodgkin's Lymphoma, Unspecified) was 5250 nM, the IC50 ([1]; Toledo, Toledo cell line, Non-Hodgkin's Lymphoma, B Cell) was 99 nM and the IC50 ([1]; U-937, U937 cell line, Non-Hodgkin's Lymphoma (Histiocytic), Monocyte) was 22 nM. The inhibition at 0.5 µM (MST1(h); 0.5 µM) was -10%, the inhibition at 10 µM (MST1(h); 10 µM) was 25% and the inhibition at 0.5 µM (Tie2(Y897S)(h); 0.5 µM) was -4%. For the same molecule, the inhibition at 10 µM (Tie2(Y897S)(h); 10 µM) was 2%, the inhibition at 0.5 µM (ALK(h); 0.5 µM) was -8% and the inhibition at 10 µM (ALK(h); 10 µM) was -4%.
